Here are results for 34 compounds from patent US20020019527A1 (priority 2000, published 2002).

Structures can show the parent of a compound that is named as a salt. Where two headings read alike, the source gives them in different places.

For the test, the target named is T1, Farnesyltransferase (FTase) (Bos taurus, UniProt P29702+P49355).
T1 construct: precipitation from a beef brain homogenate; from tissue; host or cells: bovine brain
As to the kind of experiment: Farnesyltransferase inhibition (scintillation proximity assay, [3H]-FPP / biotin-K-ras peptide). Format: biochemical, bovine. The essentials: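 Bovine brain FTase, partially purified by 30–50% saturated ammonium sulfate precipitation and DEAE Sepharose chromatography, separated from GGTase I/II. Scintillation proximity read-out of [3H]-FPP transfer to biotin-K-ras peptide, counted 1 h after quench. Compounds added from ethanol with 10-fold dilution into assay.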
A general note: SPA uses beads or plates that emit light when radiolabelled molecules are held near them.

Where [1] appears, read: compound at 10^−6 M, bovine FTase, 37° C., 30 minutes.

T1 sequence (P49355 whole entry, one chain of several): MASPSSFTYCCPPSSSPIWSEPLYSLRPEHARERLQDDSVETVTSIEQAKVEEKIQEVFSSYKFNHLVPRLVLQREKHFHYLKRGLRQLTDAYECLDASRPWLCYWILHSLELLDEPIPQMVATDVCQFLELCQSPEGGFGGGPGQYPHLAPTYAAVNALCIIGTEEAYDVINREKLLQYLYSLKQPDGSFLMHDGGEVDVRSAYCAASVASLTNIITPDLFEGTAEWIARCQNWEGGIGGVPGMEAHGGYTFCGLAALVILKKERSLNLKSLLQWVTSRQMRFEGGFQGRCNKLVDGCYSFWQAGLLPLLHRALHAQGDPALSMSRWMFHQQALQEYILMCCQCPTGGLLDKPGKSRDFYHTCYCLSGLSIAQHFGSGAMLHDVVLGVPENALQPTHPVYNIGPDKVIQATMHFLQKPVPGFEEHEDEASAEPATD

In general, inhibition refers to the drop in the measured response relative to a control, in per cent. As for `Cc1ccccc1-c1cc(C(OCc2ccccc2)c2ccsc2)ccc1C#N` (stereo not shown) [Example 80, 5-((benzyloxy)(3-thienyl)methyl)-2′-methyl(1,1′-biphenyl)-2-carbonitrile], at 1 µM the inhibition under setting [1] was 12%.

On to `Cc1ccccc1-c1cc(C(OCc2ccc(I)cc2)c2cncn2C)ccc1C#N` (stereo not shown) [Example 160, 5-(((4-iodobenzyl)oxy)(1-methyl-1H-imidazol-5-yl)methyl)-2′-methyl(1,1′-biphenyl)-2-carbonitrile hydrochloride], for which testing at 1 µM under setting [1] gave an inhibition of 96%.

`CCN(Cc1ccc([N+](=O)[O-])cc1)C(c1ccc(C#N)c(-c2ccccc2C)c1)c1cncn1C` (stereo not shown) [Example 27, 5-((ethyl(4-nitrobenzyl)amino)(1-methyl-1H-imidazol-5-yl)methyl)-2′-methyl(1,1′-biphenyl)-2-carbonitrile dihydrochloride] returned an inhibition at 1 µM under setting [1] of 100%.

With `Cc1ccccc1-c1cc(C(OCc2ccc(C#N)cc2)c2cncn2C)ccc1C#N` (stereo not shown) [Example 116, 5-(((4-cyanobenzyl)oxy)(1-methyl-1H-imidazol-5-yl)methyl)-2′-methyl(1,1′-biphenyl)-2-carbonitrile hydrochloride], the inhibition at 1 µM under setting [1] was 99%.

For orientation: % Inhibition means the percentage by which the read-out fell short of the control. A low value points to a weak effect. On to `Cc1cccc(COC(c2ccc(C#N)c(-c3ccccc3C)c2)c2cncn2C)c1.Cl` (stereo not shown) [Example 128], for which the “% Inhibition at 10^−6M” value amounted to 94%.

Consider `Cn1cncc1C(OCc1ccc(Br)cc1)c1ccc(C#N)c(-c2cccc3ccccc23)c1` (stereo not shown) [Example 263, 4-(((4-bromobenzyl)oxy)(1-methyl-1H-imidazol-5-yl)methyl)-2-(1-naphthyl)benzonitrile], for which, under setting [1], the inhibition at 1 µM stood at 100%.

On to `Cc1ccccc1-c1cc(C(OCc2cccc3cccnc23)c2cncn2C)ccc1C#N.Cl` (stereo not shown) [Example 149], for which the “% Inhibition at 10^−6M” value is 93%.

For the compound `Cl.Cl.Cn1cncc1C(NCc1ccc(S(C)(=O)=O)cc1)c1ccc(C#N)c(-c2cccc3ccccc23)c1` (stereo not shown) [Example 17], under setting [1], the “% Inhibition at 10^−6M” value amounted to 100%.

Consider `Cn1cncc1C(OCc1ccc(C#N)cc1)c1ccc(C#N)c(-c2ccccc2C=O)c1` (stereo not shown) [Example 200, 5-(((4-cyanobenzyl)oxy)(1-methyl-1H-imidazol-5-yl)methyl)-2′-formyl(1,1′-biphenyl)-2-carbonitrile hydrochloride], for which 1 µM produced 99% inhibition under setting [1].

`Cn1cncc1CN(Cc1cccc(Cl)c1)c1ccc(C#N)c(-c2cccc3ccccc23)c1` [Example 264, 4-((3-chlorobenzyl)((1-methyl-1H-imidazol-5-yl)methyl)amino)-2-(1-naphthyl)benzonitrile]: under setting [1], the inhibition at 1 µM was 100%.

Turning to `Cn1cncc1CNc1ccc(C#N)c(-c2cccc3ccccc23)c1` [Example 234, 4-(((1-methyl-1H-imidazol-5-yl)methyl)amino)-2-(1-naphthyl)benzonitrile], the inhibition at 1 µM under setting [1] is 100%.

Under setting [1], `Cn1cncc1C(OCc1ccc(C(=O)O)cc1)c1ccc(C#N)c(-c2cccc3cccnc23)c1` (stereo not shown) [Example 243, 4-(((4-cyano-3-(8-quinolinyl)phenyl)(1-methyl-1H-imidazol-5-yl)methoxy)methyl)benzoic acid dihydrochloride] displayed an inhibition at 1 µM of 82%.

In the case of `Cn1cncc1CN(Cc1ccc(C#N)c(-c2cccc3ccccc23)c1)C(=O)c1cnc(Cl)c(Cl)c1` [Example 199, 5,6-dichloro-N-(4-cyano-3-(1-naphthyl)benzyl)-N-((1-methyl-1H-imidazol-5-yl)methyl)nicotinamide], the inhibition at 1 µM under setting [1] stood at 89%.

As for `Cn1cncc1C(OCc1ccccc1)c1ccc(C#N)c(-c2ccccc2)c1` (stereo not shown) [Example 87, 5-((benzyloxy)(1-methyl-1H-imidazol-5-yl)methyl)(1,1′-biphenyl)-2-carbonitrile hydrochloride], testing at 1 µM under setting [1] gave an inhibition of 89%.

On to `Cn1cncc1C(CCc1ccccc1)NCc1ccc(C#N)c(-c2cccc3ccccc23)c1` (stereo not shown) [Example 260, 4(((1-(1-methyl-1H-imidazol-5-yl)-3-phenylpropyl)amino)methyl)-2-(1-naphthyl)benzonitrile dihydrochloride], for which, under setting [1], the inhibition at 1 µM turned out to be 90%.

As for `CC(NC(c1ccc(C#N)c(-c2cccc3ccccc23)c1)c1cncn1C)c1ccc(C#N)cc1` (stereo not shown) [Example 36, 4-(((1-(4-cyanophenyl)ethyl)amino)(1-methyl-1H-imidazol-5-yl)methyl)-2-(1-naphthyl)benzonitrile dihydrochloride], under setting [1], the inhibition at 1 µM is 100%.

`Cc1ccccc1-c1cc(C(OCc2ccccc2)c2cncs2)ccc1C#N` (stereo not shown) [Example 213, 5-((benzyloxy)(1,3-thiazol-5-yl)methyl)-2′-methyl(1,1′-biphenyl)-2-carbonitrile hydrochloride] came in with an inhibition at 1 µM under setting [1] of 41%.

With `Cn1cncc1C(OCc1ccc(C#N)cc1)c1ccc(C#N)c(-c2ccc(Cl)cc2Cl)c1` (stereo not shown) [Example 202, 2′,4′-dichloro-5-(((4-cyanobenzyl)oxy)(1-methyl-1H-imidazol-5-yl)methyl)(1,1′-biphenyl)-2-carbonitrile hydrochloride], 1 µM produced 92% inhibition under setting [1].

The compound `Cn1cncc1C(OCc1ccc(C#N)cn1)c1ccc(C#N)c(-c2cccc(Cl)c2Cl)c1` (stereo not shown) [Example 280, 6-(((2′,3′-dichloro-6-cyano(1,1′-biphenyl)-3-yl)(1-methyl-1H-imidazol-5-yl)methoxy)methyl)nicotinonitrile dihydrochloride] showed an inhibition at 1 µM under setting [1] of 98%.

On to `COc1ccc(-c2nc(COC(c3ccc(C#N)c(-c4ccccc4C)c3)c3cncn3C)no2)cc1` (stereo not shown) [Example 172, 5-(((5-(4-methoxyphenyl)-1,2,4-oxadiazol-3-yl)methoxy)(1-methyl-1H-imidazol-5-yl)methyl)-2′-methyl(1,1′-biphenyl)-2-carbonitrile hydrochloride], for which the inhibition at 1 µM under setting [1] worked out at 85%.

`COC(=O)c1ccc(COC(c2ccc(C#N)c(-c3cccc4ccccc34)c2)c2cncn2C)cc1` (stereo not shown) [Example 64, methyl 4-(((4-cyano-3-(1-naphthyl)phenyl)(1-methyl-1H-imidazol-5-yl)methoxy)methyl)benzoate hydrochloride] returned an inhibition at 1 µM under setting [1] of 100%.

Take `COc1cc(COC(c2ccc(C#N)c(-c3ccccc3C)c2)c2cncn2C)cc(OC)c1OC.Cl` (stereo not shown) [Example 148]: the “% Inhibition at 10^−6M” value is listed as 95%.

With `CC(C)c1ccccc1-c1cc(C(OCc2ccccc2)c2cncn2C)ccc1C#N` (stereo not shown) [Example 8, 5-((benzyloxy)(1-methyl-1H-imidazol-5-yl)methyl)-2′-isopropyl(1,1′-biphenyl)-2-carbonitrile hydrochloride], the inhibition at 1 µM under setting [1] amounted to 100%.

As for `Cc1ccccc1-c1cc(C(NCC2CCCCC2)c2cncn2C)ccc1C#N` (stereo not shown) [Example 24, 5-(((cyclohexylmethyl)amino)(1-methyl-1H-imidazol-5-yl)methyl)-2′-methyl(1,1′-biphenyl)-2-carbonitrile], the inhibition at 1 µM under setting [1] was determined as 100%.

On to `Cn1cncc1C(OCc1ccc(OC(F)(F)F)cc1)c1ccc(C#N)c(-c2cccc3ccccc23)c1` (stereo not shown) [Example 67, 4-((1-methyl-1H-imidazol-5-yl)((4-(trifluoromethoxy)benzyl)oxy)methyl)-2-(1-naphthyl)benzonitrile hydrochloride], for which the inhibition at 1 µM under setting [1] came to 100%.

As to `Cl.Cl.Cn1cncc1C(OCc1ccc(C#N)nc1)c1ccc(C#N)c(-c2cccc3ccccc23)c1` (stereo not shown) [Example 274, 5-(((4-cyano-3-(1-naphthyl)phenyl)(1-methyl-1H-imidazol-5-yl)methoxy)methyl)-2-pyridinecarbonitrile dihydrochlolide], the “% Inhibition at 10^−6M” value under setting [1] is given as 100%.

Compound `Cc1ccccc1-c1cc(C(O)c2cncn2C)ccc1C#N` (stereo not shown) [Example 86, 5-(hydroxy(1-methyl-1H-imidazol-5-yl)methyl)-2′-methyl(1,1′-biphenyl)-2-carbonitrile] had an inhibition at 1 µM under setting [1] of 86%.

As to `Cn1cncc1CN(Cc1ccc(C#N)c(-c2cccc3ccccc23)c1)C(=O)c1ccc(C#N)cc1` [Example 196, 4-cyano-N-(4-cyano-3-(1-naphthyl)benzyl)-N-((1-methyl-1H-imidazol-5-yl)methyl)benzamide], testing at 1 µM under setting [1] gave an inhibition of 90%.

Under setting [1], `Cn1cncc1C(OCc1cccc(C(F)(F)F)c1)c1ccc(C#N)c(-c2cccc3ccccc23)c1` (stereo not shown) [Example 68, 4-((1-methyl-1H-imidazol-5-yl)((3-(trifluoromethyl)benzyl)oxy)methyl)-2-(1-naphthyl)benzonitrile hydrochloride] displayed an inhibition at 1 µM of 100%.

Take `Cn1cncc1CN(Cc1ccc(C#N)c(-c2cccc3ccccc23)c1)C(=O)c1ccc(Cl)c(Cl)c1` [Example 197, 3,4-dichloro-N-(4-cyano-3-(1-naphthyl)benzyl)-N-((1-methyl-1H-imidazol-5-yl)methyl)benzamide]: under setting [1], the inhibition at 1 µM came to 93%.

Under setting [1], `Cn1cncc1C(OCc1ccc(Cl)c(Cl)c1)c1ccc(C#N)c(-c2cccc3cccnc23)c1` (stereo not shown) [Example 240, 4-(((3,4-dichlorobenzyl)oxy)(1-methyl-1H-imidazol-5-yl)methyl)-2-(8-quinolinyl)benzonitrile dihydrochloride] displayed an inhibition at 1 µM of 95%.

With `Cc1ccccc1-c1cc(C(OCc2noc(-c3ccccc3)n2)c2cncn2C)ccc1C#N` (stereo not shown) [Example 171, 2′-methyl-5-((1-methyl-1H-imidazol-5-yl)((5-phenyl-1,2,4-oxadiazol-3-yl)methoxy)methyl)(1,1′-biphenyl)-2-carbonitrile hydrochloride], the inhibition at 1 µM under setting [1] is 75%.

Under setting [1], `Cc1ccc(COC(c2ccc(C#N)c(-c3ccccc3C)c2)c2cncn2C)cc1C` (stereo not shown) [Example 154, 5-(((3,4-dimethylbenzyl)oxy)(1-methyl-1H-imidazol-5-yl)methyl)-2′-methyl(1,1′-biphenyl)-2-carbonitrile hydrochloride] yielded an inhibition at 1 µM of 95%.

Take `COc1ccccc1-c1nc(COC(c2ccc(C#N)c(-c3ccccc3C)c2)c2cncn2C)no1` (stereo not shown) [Example 163, 5-(((5-(2-methoxyphenyl)-1,2,4-oxadiazol-3-yl)methoxy)(1-methyl-1H-imidazol-5-yl)methyl)-2′-methyl(1,1-biphenyl)-2-carbonitrile hydrochloride]: testing at 1 µM under setting [1] gave an inhibition of 84%.
